Experimental data published in PMC10681907, “2-Hydroxyglutarate modulates histone methylation at specific loci and alters gene expression via Rph1 inhibition” (Life Science Alliance, 2023).

Tests used:
Experiment in all cases: FDH-coupled fluorescent demethylase assay, initial velocities, Hill fit
Assay type in all cases: biochemical
[1] = biological target: T1, Jhd2 (Saccharomyces cerevisiae, UniProt P47156)
T1 construct: full-length, N-terminal Strep(II) tag (pET51b+), expressed in E. coli BL21 Star (DE3), codon-optimized
T1 sequence (P47156 1-728): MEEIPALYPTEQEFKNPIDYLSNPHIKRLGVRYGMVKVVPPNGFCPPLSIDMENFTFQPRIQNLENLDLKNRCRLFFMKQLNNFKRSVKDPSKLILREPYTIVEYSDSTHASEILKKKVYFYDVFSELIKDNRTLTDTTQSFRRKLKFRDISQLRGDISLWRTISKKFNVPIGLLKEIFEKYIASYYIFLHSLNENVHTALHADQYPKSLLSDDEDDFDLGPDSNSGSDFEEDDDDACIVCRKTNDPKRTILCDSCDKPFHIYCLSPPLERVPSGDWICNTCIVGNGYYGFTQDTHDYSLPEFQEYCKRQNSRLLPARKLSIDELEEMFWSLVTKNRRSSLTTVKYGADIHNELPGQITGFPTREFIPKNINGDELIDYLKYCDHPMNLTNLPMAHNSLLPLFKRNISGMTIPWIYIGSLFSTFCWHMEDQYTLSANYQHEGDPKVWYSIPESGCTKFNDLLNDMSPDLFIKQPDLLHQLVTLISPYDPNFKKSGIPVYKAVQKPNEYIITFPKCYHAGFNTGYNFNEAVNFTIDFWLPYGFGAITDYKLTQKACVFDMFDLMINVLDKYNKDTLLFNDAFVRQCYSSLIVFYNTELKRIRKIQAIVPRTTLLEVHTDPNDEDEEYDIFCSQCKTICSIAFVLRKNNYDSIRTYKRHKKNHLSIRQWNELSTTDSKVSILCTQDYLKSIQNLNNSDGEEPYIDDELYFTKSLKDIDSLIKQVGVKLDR

[2] = biological target: T2, Gis1 (Saccharomyces cerevisiae, UniProt Q03833)
T2 construct: full-length, N-terminal Strep(II) tag (pET51b+), expressed in E. coli BL21 Star (DE3), codon-optimized
T2 sequence (Q03833 1-894): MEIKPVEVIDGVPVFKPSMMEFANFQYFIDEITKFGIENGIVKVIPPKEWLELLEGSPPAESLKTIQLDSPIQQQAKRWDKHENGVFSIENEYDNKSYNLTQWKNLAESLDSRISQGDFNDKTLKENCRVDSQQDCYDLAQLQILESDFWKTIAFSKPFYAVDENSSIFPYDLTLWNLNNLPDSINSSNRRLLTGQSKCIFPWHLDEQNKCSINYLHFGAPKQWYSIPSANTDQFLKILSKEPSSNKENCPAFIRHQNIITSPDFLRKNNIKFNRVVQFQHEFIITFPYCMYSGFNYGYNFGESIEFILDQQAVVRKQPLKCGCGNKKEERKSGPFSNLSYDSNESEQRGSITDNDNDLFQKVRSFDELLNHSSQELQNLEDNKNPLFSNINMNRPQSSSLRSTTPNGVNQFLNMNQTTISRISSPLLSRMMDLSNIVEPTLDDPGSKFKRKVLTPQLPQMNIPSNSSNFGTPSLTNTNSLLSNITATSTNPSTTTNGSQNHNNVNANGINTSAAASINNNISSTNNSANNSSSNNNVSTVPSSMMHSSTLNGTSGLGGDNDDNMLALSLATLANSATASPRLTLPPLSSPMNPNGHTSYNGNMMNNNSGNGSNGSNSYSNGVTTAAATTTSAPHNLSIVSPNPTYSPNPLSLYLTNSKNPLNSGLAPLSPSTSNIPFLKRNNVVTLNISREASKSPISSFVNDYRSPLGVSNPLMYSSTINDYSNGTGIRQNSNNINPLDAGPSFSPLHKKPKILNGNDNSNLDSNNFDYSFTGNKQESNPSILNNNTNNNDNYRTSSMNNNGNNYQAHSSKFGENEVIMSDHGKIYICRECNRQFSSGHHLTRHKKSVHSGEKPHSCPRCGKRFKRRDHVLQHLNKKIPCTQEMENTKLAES

[3] = biological target: T3, Jhd1 (Saccharomyces cerevisiae, UniProt P40034)
T3 construct: full-length, N-terminal Strep(II) tag (pET51b+), expressed in E. coli BL21 Star (DE3), codon-optimized
T3 sequence (P40034 1-492): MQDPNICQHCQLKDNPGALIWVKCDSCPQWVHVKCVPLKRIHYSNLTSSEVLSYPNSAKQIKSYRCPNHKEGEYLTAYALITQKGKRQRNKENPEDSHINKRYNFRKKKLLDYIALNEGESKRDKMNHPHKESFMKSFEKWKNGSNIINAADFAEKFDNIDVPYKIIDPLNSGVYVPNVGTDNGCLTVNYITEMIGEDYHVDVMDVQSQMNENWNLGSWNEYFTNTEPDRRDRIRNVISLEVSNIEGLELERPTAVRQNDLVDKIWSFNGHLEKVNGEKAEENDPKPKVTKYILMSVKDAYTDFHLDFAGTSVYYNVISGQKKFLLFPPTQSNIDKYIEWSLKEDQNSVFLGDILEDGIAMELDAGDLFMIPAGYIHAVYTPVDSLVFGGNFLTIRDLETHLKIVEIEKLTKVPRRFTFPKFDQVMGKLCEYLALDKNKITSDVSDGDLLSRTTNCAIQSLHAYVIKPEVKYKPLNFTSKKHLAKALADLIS

[4] = biological target: T4, Rph1 (Saccharomyces cerevisiae, UniProt P39956)
T4 construct: full-length, N-terminal Strep(II) tag (pET51b+), expressed in E. coli BL21 Star (DE3), codon-optimized
T4 sequence (P39956 whole entry): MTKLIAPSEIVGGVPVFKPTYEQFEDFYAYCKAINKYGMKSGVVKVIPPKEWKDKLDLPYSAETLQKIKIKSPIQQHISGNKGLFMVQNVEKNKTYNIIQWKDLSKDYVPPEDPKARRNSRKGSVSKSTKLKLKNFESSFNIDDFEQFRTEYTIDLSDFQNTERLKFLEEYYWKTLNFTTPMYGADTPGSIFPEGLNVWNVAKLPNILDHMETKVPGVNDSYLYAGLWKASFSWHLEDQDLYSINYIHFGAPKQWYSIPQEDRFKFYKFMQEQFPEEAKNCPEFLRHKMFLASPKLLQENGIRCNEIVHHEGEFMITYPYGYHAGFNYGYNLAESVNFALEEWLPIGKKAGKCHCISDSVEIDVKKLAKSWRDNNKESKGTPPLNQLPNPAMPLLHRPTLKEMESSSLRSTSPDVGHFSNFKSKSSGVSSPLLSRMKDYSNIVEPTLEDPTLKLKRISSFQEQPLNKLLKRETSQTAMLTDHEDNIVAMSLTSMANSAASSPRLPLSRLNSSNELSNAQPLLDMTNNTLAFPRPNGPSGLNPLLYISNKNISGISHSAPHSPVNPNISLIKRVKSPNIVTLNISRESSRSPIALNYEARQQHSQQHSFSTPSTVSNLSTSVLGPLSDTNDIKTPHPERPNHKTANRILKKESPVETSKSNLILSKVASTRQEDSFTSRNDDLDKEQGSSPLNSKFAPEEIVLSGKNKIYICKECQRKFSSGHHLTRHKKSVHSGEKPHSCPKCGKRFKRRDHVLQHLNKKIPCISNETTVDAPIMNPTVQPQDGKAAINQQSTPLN

IC50 [1]: ~2.2 mM | IC50 [2]: ~3.1 mM | IC50 [3]: ~2 mM | IC50 [4]: ~1.3 mM
Structure (SMILES): O=C(O)CC[C@@H](O)C(=O)O [2-HG]
